Measurements reported in publication PMC5601486, “Identification of 4-phenylquinolin-2(1H)-one as a specific allosteric inhibitor of Akt” (Scientific Reports, 2017).
Values joined by “and” are separate entries in the source; they are usually repeats but may differ in a detail not shown here. Equal entries are not always repeated.

How the values were obtained:
CLK4 = test: KINOMEscan; details: 50000 nM
Description: KINOMEscan™ selectivity screen
(§4) The assay was perfor med at DiscoveRx Corporation according the methods published previously5. Briefly, Kinase-tagged T7 phage strains were grown in parallel in an E. coli host derived from the BL21 strain. E. coli were grown to log-phase and infected with T7 phage from a frozen stock and incubated with shaking at 32°C until lysis (90-150 minutes). The kinases were produced in HEK-293 cells and subsequently tagged with DNA for qPCR detection. Streptavidin-coated magnetic beads were treated with biotinylated small molecule ligands to generate affinity resins for kinase
(§5) inhibitor or DMSO control was performed in polypropylene 384-well plates for 1 hr at room temperature. After wash with PBS buffer containing 0.05% Tween 20, the beads were incubated in elution buffer (PBS containing 0.05 % Tween 20 and 0.5 μM non-biotinylated affinity ligand) for 30 minutes at room temperature. The kinase concentration in the eluates was measured by qPCR.

Akt = target: T1, Akt (Mus musculus, UniProt P31750); test: Akt activity assay (immunoprecipitated Akt, K-Lisa); format: cell-based
T1 construct: subjected to immunoprecipitation using protein G-plus and anti-AKT PH domain (Millipore); endogenous in cells; host or cells: Neuro 2A (mouse neuroblastoma), IGF-stimulated
T1 sequence (P31750 whole entry, the tested form may be a part): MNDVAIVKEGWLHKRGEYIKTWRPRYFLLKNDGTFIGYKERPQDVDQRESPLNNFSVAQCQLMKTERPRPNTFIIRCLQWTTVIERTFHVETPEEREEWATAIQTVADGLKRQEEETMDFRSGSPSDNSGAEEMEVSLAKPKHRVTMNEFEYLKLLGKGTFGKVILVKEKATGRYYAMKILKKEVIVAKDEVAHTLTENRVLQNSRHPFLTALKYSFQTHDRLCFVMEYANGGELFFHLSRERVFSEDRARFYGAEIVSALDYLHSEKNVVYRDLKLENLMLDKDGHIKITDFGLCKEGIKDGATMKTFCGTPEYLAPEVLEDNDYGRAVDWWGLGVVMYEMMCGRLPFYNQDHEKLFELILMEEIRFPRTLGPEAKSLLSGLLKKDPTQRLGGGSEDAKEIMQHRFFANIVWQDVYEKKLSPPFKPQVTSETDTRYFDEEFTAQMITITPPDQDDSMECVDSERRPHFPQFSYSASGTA
Description: After overnight starvation by incubating with serum-free DMEM, Neuro 2A cells were treated with compound G7 at various concentrations for 30 min at room temperature followed by stimulation with IGF (final concentration of 100 ng/mL) for 30 min. Cells were lysed with lysis buffer containing 1% Triton X-100 and protease/phosphatase inhibitors (Cell Signaling Technology) and subjected to immunoprecipitation using protein G-plus and anti-AKT PH domain (Millipore). The activity of the immunopurified Akt was evaluated using a K-Lisa Akt activity kit (Millipore) in accordance with manufacturer’s instructions. The activity was normalized to Akt level in the immunoprecipitates determined by quantitative western blot analysis.

NEK6 = test: KINOMEscan; details: 50000 nM
Description: KINOMEscan™ selectivity screen
as §4, §5

PKA = test: Western blot of PKA phosphorylation; format: cell-based, Mouse; details: Neuro 2A cells
Description: Neuro 2A cells were seeded in 12-well plates in DMEM containing 5% FBS for 24 hr.
After overnight serum starvation (in 0% FBS DMEM), cells were incubated for 30 min at 37 °C with G7 or LY294002 or Torin 1 (Sigma Aldrich) at various concentrations, or DMSO control. IGF-1 was added to each well at a final concentration of 100 ng/mL. After 30-min incubation cells were washed with cold PBS and lysed with 50 µL lysis buffer containing 1% Triton X-100 and protease/phosphatase inhibitors (Cell Signaling Technology) or RIPA buffer (Santa Cruz Biotech). Samples were electrophoresed in 4–12% Bis-Tris gels (Life Technologies) at 150 V using MOPS SDS running buffer. Proteins were transferred electrophoretically to a PVDF or nitrocellulose membrane. For detection of cleaved […]
caspase 3 a Trans-Blot Turbo Transfer System (Bio-Rad, 25 V for 25 min) with PVDF membrane were used. […]
anti- GAPDH (14C10) antibody (#2118) (all antibodies were from Cell Signaling Technology unless indicated, 1:1000 dilution was used) at 4°C overnight, washed three times with TBS-T, then incubated with peroxidase-conjugated secondary antibody (Sigma-Aldrich) for 1 hr at room temperature. […] Band intensity was quantitated using Kodak 1D imaging analysis software. […]

[1] = tested on: RSK4(Kin.Dom.1-N-terminal); test: KINOMEscan; details: 50000 nM
Description: KINOMEscan™ selectivity screen
as §4, §5

AKT1 = test: KINOMEscan; details: 50000 nM
Description: KINOMEscan™ selectivity screen
as §4, §5

OSR1 = test: KINOMEscan; details: 50000 nM
Description: KINOMEscan™ selectivity screen
(§6) Briefly, Kinase-tagged T7 phage strains were grown in parallel in an E. coli host derived from the BL21 strain. E. coli were grown to log-phase and infected with T7 phage from a frozen stock and incubated with shaking at 32°C until lysis (90-150 minutes). The kinases were produced in HEK-293 cells and subsequently tagged with DNA for qPCR detection. Streptavidin-coated magnetic beads were treated with biotinylated small molecule ligands to generate affinity resins for kinase
as §5

CDK2 = test: KINOMEscan; details: 50000 nM
Description: KINOMEscan™ selectivity screen
as §6, §5

SGK2 = test: KINOMEscan; details: 50000 nM
Description: KINOMEscan™ selectivity screen
as §6, §5

IRAK4 = test: KINOMEscan; details: 50000 nM
Description: KINOMEscan™ selectivity screen
as §6, §5

PDK1 = tested on: T2, PDK1; test: ADP-Glo kinase assay; format: biochemical; details: 50 µM
T2 construct: purchased Promega V2761
Description: (§1) Elisa Assay for phosphorylation of Akt
(§2) Neuro 2A cells in 48-well plates were incubated with the inhibitor for 30 minutes at 37°C followed by IGF stimulation for 30 min. Cells were lysed and subjected to Elisa assay using an Akt (S473) InstantOne Elisa kit (ThermoFisher Scientific, # 8586042-11) in accordance with manufacturer ’s instruction.
(§3) An ADP-GloTM kinase assay kit (Promega, # V9101) was used to measure the activity of PDK1 or SGK1 in accordance with the manufacturer’s instructions. For PDK1 assay, the reaction mixture included 5 µM ATP, 50 µM inhibitor, 100 ng recombinant PDK1 and 2 µg PDKtide substrate (Promega, #V2761) prior to the addition of the ADP-Glo reagents. For SGK1, 5 µM ATP, 50 µM inhibitor, 10 ng SGK1 and 1 µg Akt substrate peptide (Promega, #V2911) were used. Staurosporine at concentration between 0.4 and 4,000 nM or the SGK1 inhibitor GSK-650394 (Tocris Bioscience) between 7 and 2,000 nM were used as controls for PDK1 or SGK1 assay respectively. For PI3K assay, 50 µM ATP, 50 µM inhibitor, 100 ng recombinant PI3 kinase (SignalChem, Richmond, Canada, # P27-10H-05) and 1.5 mg/mL multilamellar phospholipid vesicles containing PC/PE/PS/PIP2 (at mass ratio of 1/0.5/0.2/0.1) were used. Inhibitor blanks as well as LY-294002 between 78 and […]

SGK1 = tested on: T3, SGK1; test: ADP-Glo kinase assay; format: biochemical; details: 50 µM
T3 construct: purchased Promega V2911
Description: as §1, §2, §3

HIPK3 = test: KINOMEscan; details: 50000 nM
Description: KINOMEscan™ selectivity screen
as §6, §5

MST1R = test: KINOMEscan; details: 50000 nM
Description: KINOMEscan™ selectivity screen
as §4, §5

PIP5K2B = test: KINOMEscan; details: 50000 nM
Description: KINOMEscan™ selectivity screen
as §4, §5

PAK6 = test: KINOMEscan; details: 50000 nM
Description: KINOMEscan™ selectivity screen
as §6, §5

TESK1 = test: KINOMEscan; details: 50000 nM
Description: KINOMEscan™ selectivity screen
as §4, §5

[2] = tested on: ABL1(F317I)-nonphosphorylated; test: KINOMEscan; details: 50000 nM
Description: KINOMEscan™ selectivity screen
as §4, §5

[3] = tested on: JAK1(JH1domain-catalytic); test: KINOMEscan; details: 50000 nM
Description: KINOMEscan™ selectivity screen
as §4, §5

DMPK2 = test: KINOMEscan; details: 50000 nM
Description: KINOMEscan™ selectivity screen
as §4, §5

ERBB2 = test: KINOMEscan; details: 50000 nM
Description: KINOMEscan™ selectivity screen
as §4, §5

WEE2 = test: KINOMEscan; details: 50000 nM
Description: KINOMEscan™ selectivity screen
The assay was perfor med at DiscoveRx Corporation according the methods published previously5. […] The kinases were produced in HEK-293 cells and subsequently tagged with DNA for qPCR detection. Streptavidin-coated magnetic beads were treated with biotinylated small molecule ligands to generate affinity resins for kinase
as §5

Oc1cc(-c2ccccc2)c2ccccc2n1 [G7, 4-phenylquinolin-2(1H)-one]
Percent Control (CLK4): 80%
decrease of Akt activity (Akt; G7 at 50 µM): ~ 80%
IC50 (Akt; IGF-stimulated Neuro 2A cells, Akt immunoprecipitated, read-out: IC50 on Akt enzymatic activity): 6 µM and 6.2 µM
Percent Control (NEK6): 92%
phosphorylation (activation status) of PKA (PKA): did not alter
Percent Control [1]: 34%
Percent Control (AKT1): 100%
Percent Control (OSR1): 87%
Percent Control (CDK2): 88%
Percent Control (SGK2): 62%
Percent Control (IRAK4): 68%
effect on PDK1 activity (PDK1): no effects
effect on SGK1 activity (SGK1): no effects
Percent Control (HIPK3): 65%
Percent Control (MST1R): 100%
Percent Control (PIP5K2B): 100%
Percent Control (PAK6): 87%
Percent Control (TESK1): 100%
Percent Control [2]: 71%
Percent Control [3]: 82%
Percent Control (DMPK2): 100%
Percent Control (ERBB2): 98%
Percent Control (WEE2): 84%
